Converted amounts (≈) assume the structure as drawn.

One data set relates to VUN 110,012. Briefly: Growth of PAH-degrading bacteria on a variety of carbon sources. It counts as cell-based, Stenotrophomonas maltophilia. Particulars: substrate 50 mg l^−1 (or vapor phase), sole carbon source. How it is done: (§1) Gram staining and biochemical tests for bacterial identification were performed according to Collin et al. (1989) following growth in nutrient broth or nutrient agar. […] Compounds tested were added to BSM as a sole carbon and energy source at 50 mg l^−1, and volatile compounds were supplied to the culture in the vapour phase. […] The cells were collected and washed in BSM and the resuspended cells were inoculated into BSM containing different carbon sources. Inoculated BSM without an added carbon source and uninoculated BSM plus carbon source were used as controls. Inocula for the PAH degradation tests were transferred directly from parent cultures, but inocula for other carbon sources were washed prior to inoculation.

The subject of another data set is VUN 110,010. The data set is described as above. Particulars: substrate 50 mg l^−1 (or vapor phase), sole carbon source. It counts as cell-based, Stenotrophomonas maltophilia. The protocol:
as §1

The test system of another data set is VUN 110,013. It counts as cell-based, Burkholderia sp. As to conditions: substrate 50 mg l^−1 (or vapor phase), sole carbon source. How it is done: as §1
For data set [1], the system named is strains VUN 10,010, VUN 10,011 and VUN 10,012. Briefly: Growth of all the strains on compounds as sole carbon and energy source. It counts as cell-based. As to conditions: supplied at 50 mg l^−1. How it is done:
as §1

The next data set has as its system VUN 110,011. Put plainly: Growth of PAH-degrading bacteria on a variety of carbon sources. Particulars: substrate 50 mg l^−1 (or vapor phase), sole carbon source. It counts as cell-based, Pseudomonas fluorescens. The protocol: as §1
Data set [2] concerns S. maltophilia VUN 10,010. Briefly: Degradation of a PAH mixture by VUN 10,010 with surfactant, low initial cell population. The format is cell-based, Stenotrophomonas maltophilia. As to conditions: for Maximum Specific Degradation Rate: — = not appreciable. The protocol: The incubations were conducted in BSM at 30° C., using low initial cell populations. The PAH remaining was calculated as a percentage relative to the PAH recovered from the uninoculated control. Averages for the test cultures are from triplicate experiments.
A low initial cell population of around 9×10^3 cells ml^−1 was used.

Data set [3] has as its system S. maltophilia VUN 10,010. Briefly: Degradation of single high molecular weight PAHs by high initial populations of VUN 10,010 with surfactant. The format is cell-based, Stenotrophomonas maltophilia. The protocol: […] Incubations contained a single PAH in BSM at 30° C. The PAH remaining was calculated as a percentage relative to the PAH recovered from the […]. Averages for the test cultures are from triplicate experiments.
Tergitol NP-10 (5 and 10 g l^−1) was added to BSM broths each containing a single high molecular weight PAH.

A short description of data set [4]: PAH solubilization by surfactants (apparent solubility, MSR, Km). How it is done:
PAHs (approximately 1 g l^−1) were added to a 10 ml solution of BSM plus surfactant in a 30 ml glass reaction vial, which was sealed with an aluminium cap fitted with a septum. Surfactant concentrations corresponded to levels above, below, and at the CMC, and replicates were set up to allow sampling in duplicate at different time intervals up to 72 h. Incubation was performed at 30° C. and 175 rpm. The entire vial contents was collected by syringe and expressed through a preconditioned membrane filter (0.22 μm, Sartorius AG, Germany) to remove solid-phase crystalline PAH while allowing solubilized PAH in the aqueous phase and micellar pseudophase to pass into sterile vials. The filter was preconditioned by purging the filter with a few mls of sample solution to allow sorption saturation of the internal surfaces of the syringe, filter and needle. The filtrates were extracted with dichloromethane (DCM), and the concentration of solubilized PAH was determined by GC-FID as described below.
The effectiveness of a particular surfactant in solubilizing a given PAH can be assessed by determining the molar solubilization ratio (MSR) and micelle/water partition coefficient (Km). In our study, the concentrations of added PAHs were well in excess of aqueous saturation concentrations; therefore the MSR value of each compound can be obtained from the slope of the curve generated from a plot of PAH concentration versus surfactant concentration for surfactant concentrations above CMC (Edwards et al, 1991).
Km values can be determined from the measured MSR values according to the following equation (Edwards et al, 1991): [formula]
^SPAH, CMC is the apparent solubility of the PAH (mol l^−1) at surfactant CMC. VW is the molar volume of water at 30° C. ie. 0.018015 l mol^−1(Rogers and Mayhew, 1981).

Data set [5] relates to P. janthinellum VUO 10,201. Briefly: Degradation of high molecular weight PAHs by axenic cultures. It counts as cell-based, Penicillium janthinellum. The protocol: (§2) PAH concentrations in the DCM extracts were measured on a Varian Star 3400 gas chromatograph, equipped with a flame ionization detector, using a BPX-5 capillary column (25 m×0.22 mm). The nitrogen carrier flow rate was 0.8 ml min^−1 with a pressure of 20 psi under split conditions (95:1). The oven temperature was programmed at 200° C. for 1 min, followed by a linear increase of 10° C. min^−1 to 320° C.; this temperature was held for 15 min. Injector and detector temperatures were maintained at 300° C. The peak areas of both internal standard and PAH were used to calculate peak area ratios. Ratios obtained for each sample, as well as controls, were compared to those of PAH standards.
(§3) PAH degradation experiments using axenic bacterial and fungal cultures, and fungal-bacterial co-culture, were performed in 30 ml reaction vials containing 10 ml of medium. Before inoculation, 0.1 ml of PAH stock solution (either single PAH or mixed PAH stock as described above) was introduced into the medium. This medium was then inoculated with microorganisms to produce either axenic cultures or co-cultures. Axenic cultures were inoculated with either bacteria (1 ml) to provide an initial cell population of approximately 10^4 cells ml^−1, or with mycelial pellets (0.25 g wet weight) in 10 ml of BSM. For the co-culture experiments, BSM (10 ml) contained bacteria (10^4 cells ml^−1) and 0.25 g wet weight of mycelial pellets. Experiments to investigate of co-metabolic PAH degradation by P. janthinellum were conducted with the PAH in BSM supplemented with glucose (1% final concentration) or MYPD medium. […] Medium (10 ml) was inoculated with fungal or bacterial culture using the same inoculum size as described above. All cultures were aseptically flushed with filtered (0.22 μm) air (0.2 litres min^−1) for 5 seconds on the day of inoculation and every 7 days thereafter. Abiotic controls were sterile medium containing only PAH(s). Killed-cell controls were the PAH-containing medium inoculated with a killed microbial population. The experimental cultures were conducted in triplicate, and all controls were run in duplicate. All cultures were incubated in the dark at 30° C./175 rpm. At designated time intervals the entire culture (10 ml) was sacrificed for the PAH-extraction procedure and biomass determinations.

In a further data set the test system is VUN 10,010. Described as above. As to conditions: BSM, 56 day samples. The format is cell-based, Stenotrophomonas maltophilia. The protocol:
as §2, §3

The test system of data set [6] is Bacterial consortium VUN 10,009. Described as above. It counts as cell-based. Particulars: BSM, 56 day samples. How it is done: as §2, §3
Setting [7] is: Tergitol NP-10 5 g l^−1, Mixed PAH.
The mark [8] stands for this setting: Tergitol NP-10 5 g l^−1, Single PAH.
Setting [9] is: Tergitol NP-10 10 g l^−1, Single PAH.

On to `Cc1ccccc1` [Toluene], for which the Growth result is reported as “+” in the data set with VUN 110,012, “+” in the data set on VUN 110,010, “−” with VUN 110,013 and “+” in the data set with VUN 110,011. The “growth on compound as the sole carbon and energy source” value (from here on “growth on compound”) in data set [1] is “grew”.

For `O=C(O)c1ccccc1O` [Salicylic acid], the Growth result with VUN 110,012, with VUN 110,010, in the data set with VUN 110,013 and in the data set on VUN 110,011 was “+” in each case. For the same compound, the “growth on compound” value in [1] is recorded as “grew”.

On to `O=C(O)c1ccc(O)c(O)c1` [Protocatechuic acid], for which the Growth entry in the data set with VUN 110,012, with VUN 110,010, in the data set on VUN 110,013 and in the data set with VUN 110,011 was “+” throughout. Moreover, in data set [1], the “growth on compound” value was “grew”.

With `c1ccccc1` [Benzene], the Growth result with VUN 110,012, with VUN 110,010, with VUN 110,013 and in the data set on VUN 110,011 was “+” each time. For the same compound, the “growth on compound” value in data set [1] is listed as “grew”.

What is called solubility is how much of the substance goes into solution per volume. Consider `c1ccc2c(c1)-c1cccc3cccc-2c13` [Fluoranthene, fluoranthene], for which the “Maximum Specific Degradation Rate” value in [2] (No Surfactant, Mixed PAH) is 1.02 mg PAH degraded mg^−1 protein day^−1; in [2] (setting [7]) it was 1.11 mg PAH degraded mg^−1 protein day^−1; in data set [3] (Brij 35 5 g l^−1, Single PAH), 3.71 mg PAH degraded mg^−1 protein day^−1; in data set [3] (Brij 35 10 g l^−1, Single PAH), 12.11 mg PAH degraded mg^−1 protein day^−1; in data set [3] (No Surfactant, Single PAH), 2.90 mg PAH degraded mg^−1 protein day^−1; in data set [3] (setting [8]), 4.54 mg PAH degraded mg^−1 protein day^−1. In addition, the “Maximum Specific Degradation Rate” value in data set [3] (setting [9]) is 4.59 mg PAH degraded mg^−1 protein day^−1. Besides, the “percentage change in maximum specific degradation rate due to surfactant addition” value in data set [2] (setting [7]) is reported as “+9%”; in [3] (Brij 35 5 g l^−1, Single PAH), “+28%”; in data set [3] (Brij 35 10 g l^−1, Single PAH), “+318%”; in data set [3] (setting [8]) it was “+57%”; in data set [3] (setting [9]), “+58%”. Besides, the solubility in data set [4] (30° C.) is around 1.37 µM (≈ 0.277 µg/mL); in data set [4] (30 °C, aqueous with cosolvent or surfactant or cyclodextrin, thermodynamic from solid), 730 to 810 µM (≈ 148 to 164 µg/mL).

On to `CCCCCCCCCCCCCCCC` [n-hexadecane], for which the Growth entry in the data set on VUN 110,012, with VUN 110,010, in the data set on VUN 110,013 and in the data set on VUN 110,011 was “+” throughout. In data set [1], the “growth on compound” value is “grew”.

As to `CCCCCCCC` [n-octane], the Growth entry in the data set with VUN 110,012, in the data set with VUN 110,010, in the data set on VUN 110,013 and with VUN 110,011 was “+” in each case. In addition, the “growth on compound” value in [1] is listed as “grew”.

For the compound `Oc1ccc(Cl)cc1` [4-chlorophenol], the Growth entry in the data set on VUN 110,012 is given as “+”; with VUN 110,010, “+”; with VUN 110,013, “+”; in the data set on VUN 110,011, “−”. Further, the “growth on compound” value in data set [1] is “grew”.

In the case of `O=C(O)c1ccccc1C(=O)O` [Phthalic acid], the Growth result with VUN 110,012, with VUN 110,010, in the data set with VUN 110,013 and in the data set on VUN 110,011 was “+” each time. Besides, the “growth on compound” value in data set [1] is listed as “grew”.

Regarding `Oc1cc(Cl)ccc1Cl` [2,5-dichlorophenol], the Growth entry in the data set on VUN 110,012, in the data set on VUN 110,010, in the data set with VUN 110,013 and in the data set on VUN 110,011 was “+” in each case. Further, the “growth on compound” value in [1] is reported as “grew”.

Consider Tween 80, for which the Growth entry with VUN 110,012, in the data set on VUN 110,010, in the data set with VUN 110,013 and in the data set on VUN 110,011 was “+” each time. In data set [1], the “growth on compound” value was “grew”.

For `O=C(O)c1ccccc1` [Benzoic acid], the Growth entry in the data set with VUN 110,012, in the data set on VUN 110,010, in the data set with VUN 110,013 and in the data set on VUN 110,011 was “+” each time. Also, in data set [1], the “growth on compound” value was “grew”.

In the case of `c1cc2ccc3cccc4ccc(c1)c2c34` [Pyrene, pyrene], the “PAH removal (%)” value in data set [5] (BSM, 56 day samples) was found to be 3.3 ± 0.3%; in data set [5] (BSM^g, 28 day samples) it was 80.3 ± 2.8%; in data set [5] (MYPD, 28 day samples) it was 93.6 ± 2.8%; in the data set with VUN 10,010 it was 100.0 ± 0.0%; in data set [6], 100.0 ± 0.0%.

With `O=C(O)c1ccc(O)cc1` [p-hydroxybenzoic acid], the Growth result with VUN 110,012, with VUN 110,010, with VUN 110,013 and in the data set on VUN 110,011 was “+” throughout. Also, the “growth on compound” value in data set [1] is reported as “grew”.
